The values below come from paper PMC7616161 (ACS chemical neuroscience, 2020).

Residue numbers refer to the chain shown, from its start.

Holding throughout (format): cell-based
Assay [1] addresses T1, hM1 WT mAChR (M1 muscarinic acetylcholine receptor) (Homo sapiens, UniProt P11229, A196G/Y106C).
T1 sequence (P11229 1-460 Y106C/A196G): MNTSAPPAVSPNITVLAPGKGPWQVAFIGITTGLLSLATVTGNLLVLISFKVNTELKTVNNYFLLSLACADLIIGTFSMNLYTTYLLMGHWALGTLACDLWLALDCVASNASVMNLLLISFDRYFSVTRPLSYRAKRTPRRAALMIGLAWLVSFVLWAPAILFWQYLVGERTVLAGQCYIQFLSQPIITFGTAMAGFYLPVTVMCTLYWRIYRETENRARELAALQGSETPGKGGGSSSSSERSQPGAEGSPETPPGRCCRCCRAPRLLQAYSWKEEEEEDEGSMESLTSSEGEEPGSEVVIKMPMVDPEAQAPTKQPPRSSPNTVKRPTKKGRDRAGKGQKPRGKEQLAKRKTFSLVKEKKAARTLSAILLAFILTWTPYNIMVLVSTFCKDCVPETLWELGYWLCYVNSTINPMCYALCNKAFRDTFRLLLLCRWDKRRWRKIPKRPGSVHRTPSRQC
Kind of assay: IP1 accumulation.

Assay [2] has as its target T1, hM1 WT mAChR (M1 muscarinic acetylcholine receptor). Put plainly: cell-based.
In assay [3] the target is T2, hM1 WT mAChR (M1 muscarinic acetylcholine receptor) (Homo sapiens, UniProt P11229).
T2 sequence (P11229 1-460): T1 sequence (P11229 1-460 Y106C/A196G) with C106Y, G196A
Put plainly: cell-based.

Assay [4] addresses T2, hM1 WT mAChR (M1 muscarinic acetylcholine receptor). Kind of assay: IP1 accumulation. To be noted: for pEC50^b / IP1 / M1WT: […] h, […] °C, pH […].
For assay [5], the target named is T3, hM1 WT mAChR (M1 muscarinic acetylcholine receptor) (Homo sapiens, UniProt P11229, Y106C/A196G).
T3 sequence (P11229 1-460 Y106C/A196G): T1 sequence (P11229 1-460 Y106C/A196G)
Put plainly: whole-cell [3H]NMS inhibition binding, allosteric ternary complex model. The note with it: M1 DREADD, printed as Y3.[…] and A5.[…]; HBSS, […] HEPES pH […]; allosteric.

The target in assay [6] is T2, hM1 WT mAChR (M1 muscarinic acetylcholine receptor). Described as above.
The target in assay [7] is T1, hM1 WT mAChR (M1 muscarinic acetylcholine receptor). Described as above.
Assay [8] concerns the target T3, hM1 WT mAChR (M1 muscarinic acetylcholine receptor). Kind of assay: cell-based.

A word on the EC50: it is the midpoint of the concentration-response curve. Read a high EC50 as lower potency in that assay. As usually defined, the Ki is a dissociation constant, usually derived from enzyme kinetics or from competition with a known ligand. In assay [1], `C[N+]1([O-])CCN(C2=Nc3cc(Cl)ccc3Nc3ccccc32)CC1` [CNO] gave an EC50 of 5.37 nM. The Ki in assay [2] is 126 nM; in assay [3], 12.6 µM.
Consider `Cn1cc(-c2ccc(COc3ccccc3-c3cc(=O)n(C4CCCCC4O)cn3)cc2)cn1` (stereo not drawn) [MIPS1780, 3-(2-hydroxycyclohexyl)-6-(2-((4-(1-methyl-1H-pyrazol-4-yl)-benzyl)oxy)phenyl)-pyrimidin-4(3H)-one], for which the “pEC50^b / IP1 / M1WT” value in assay [4] (allosteric agonist, no ACh added) is reported as 6.86 ± 0.19. For the same compound, the “pKI^b (nH)^c / M1DREADD” value in assay [5] is given as 5.3 ± 0.09. The “pKI^b (nH)^c / M1WT” value in assay [6] (HBSS, […] HEPES pH […], allosteric) is 6.0 ± 0.10.
Regarding `Cc1cnc(C(=O)N[C@H]2CCOC[C@@H]2O)cc1Cc1ccc(-c2cscn2)cc1` [PF-06767832, N-((3R,4S)-3-hydroxytetrahydro-2H-pyran-4-yl)-5-methyl-4-(4-(thiazol-4-yl)benzyl)pyridine-2-carboxamide], in assay [4], a half-maximal response (EC50) required 12.9 nM. Moreover, the inhibitory constant (Ki) in assay [7] was 5.01 µM; in assay [6], 501 nM.
In the same order, the values of `O=C(N[C@H]1CCCC[C@@H]1O)[C@H]1CN(Cc2ccc(-n3cccn3)cc2)c2ccccc2O1` [VU0486846, (2R)-N-[(1S,2S)-2-hydroxycyclohexyl]-4-[(4-pyrazol-1-ylphenyl)-methyl]-2,3-dihydro-1,4-benzoxazine-2-carboxamide] are 372 nM, 25.1 µM and 794 nM.
Regarding `O=C1CCCN1CC#CCN1CCCC1` [oxotremorine], the “pEC50^b / IP1 / M1WT” value in assay [4] (orthosteric agonist) amounted to 7.68 ± 0.12. Moreover, the “pKI^b (nH)^c / M1DREADD” value in assay [8] came to 4.3 ± 0.05. The “pKI^b (nH)^c / M1WT” value in assay [3] amounted to 6.0 ± 0.04.
